Ki and IC50 data for ten molecules are collected here from US20230203041A1, “ANTAGONISTS OF THE ADENOSINE A2A RECEPTOR” (AdoRx Therapeutics Limited, priority 2020, published 2023).

The Ki is a measure of affinity in units of concentration, obtained from inhibition or displacement. Read a low Ki as a stronger hold on the target. One may read the IC50 as the midpoint of a concentration-inhibition curve.

The target of assay [1] is T1, human Adenosine A2a receptor (Homo sapiens, UniProt P29274).
T1 construct: expressed in transfected cells; host or cells: CHO cell membranes
As to the kind of experiment: Adenosine receptor TR-FRET binding assay (CA200645 displacement), A2a. Particulars: 100 nM CA200645, CHO cell membranes, 2 hours at room temperature. For orientation: In TR-FRET formats the signal depends on donor and acceptor labels being close together.

The target in assay [2] is T2, human Adenosine A1 receptor (Homo sapiens, UniProt P30542).
T2 sequence (P30542 1-326): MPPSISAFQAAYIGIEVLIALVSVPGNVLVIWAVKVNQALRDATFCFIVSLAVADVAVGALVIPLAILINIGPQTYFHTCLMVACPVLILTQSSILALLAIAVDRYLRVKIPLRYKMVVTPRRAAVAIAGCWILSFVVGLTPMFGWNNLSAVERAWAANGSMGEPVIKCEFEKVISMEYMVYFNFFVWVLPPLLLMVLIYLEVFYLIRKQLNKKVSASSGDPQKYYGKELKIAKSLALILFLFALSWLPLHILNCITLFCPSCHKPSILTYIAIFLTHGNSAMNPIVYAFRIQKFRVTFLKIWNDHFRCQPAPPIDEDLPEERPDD
As to the kind of experiment: Adenosine receptor TR-FRET binding assay (CA200645 displacement), A1.

The target of assay [3] is T3, human Adenosine A2b receptor (Homo sapiens, UniProt P29275).
T3 construct: expressed in transfected cells; host or cells: CHO cell membranes
T3 sequence (P29275 1-332): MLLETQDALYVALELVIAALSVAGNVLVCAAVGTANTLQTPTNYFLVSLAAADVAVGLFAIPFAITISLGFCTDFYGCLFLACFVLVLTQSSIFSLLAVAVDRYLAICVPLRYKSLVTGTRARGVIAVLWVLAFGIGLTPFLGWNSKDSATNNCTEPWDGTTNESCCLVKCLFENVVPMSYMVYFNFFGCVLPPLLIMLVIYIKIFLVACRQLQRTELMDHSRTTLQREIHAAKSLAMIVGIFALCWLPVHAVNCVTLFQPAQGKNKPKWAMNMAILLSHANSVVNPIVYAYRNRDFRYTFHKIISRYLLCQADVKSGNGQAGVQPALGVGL
As to the kind of experiment: Adenosine receptor TR-FRET binding assay (CA200645 displacement), A2b. Conditions: 30 nM CA200645, CHO cell membranes, 2 hours at room temperature.
Protocol: All FRET binding experiments were conducted at room temperature in white 384-well plates, in assay binding buffer containing 1×LabMed (Cisbio, France), 100 μg/mL saponin, 1% DMSO and 0.02% pluronic acid. Binding of the fluorescently labelled Adenosine receptor antagonist XAC (CA200645, FRET acceptor) to terbium-labelled A1, A2a, A2b and A3 adenosine receptors (FRET donors) was detected by time-resolved FRET due to the close proximity of the donor and acceptor in a binding event. To investigate the ability of unlabelled test compounds to bind to Adenosine A1, A2a, A2b and A3 receptors, dose response curves were constructed that determined the ability of a range of concentrations to inhibit the binding of 30 nM CA200645 to the A2b receptor and 100 nM CA200645 to the A1, A2a, and A3 receptor.
Serial dilution (1:3 dilutions) of test compounds in neat DMSO and transfer of a 400 nL sample of test compound into the assay plate was carried out using the Mosquito (TTP Labtech, UK). The compound samples were incubated for 2 hours at room temperature with a fixed concentration of CA200645 defined for each receptor (see above) and CHO cell membranes containing the human Adenosine A1 (0.5 μg/well), A2a (0.3 μg/well), A2b (1 μg/well) or A3 (1 μg/well) receptor in 40 μL of assay buffer. Total and non-specific binding of CA200645 was determined in the absence and presence of 10 μM XAC, respectively. Following 2 hours incubation, the level of CA200645 binding was detected on a Pherastar FSX (BMG Labtech, Germany) using standard TR-FRET settings. The terbium donor was excited with three laser flashes at a wavelength of 337 nm, and donor and acceptor emission was detected at 620 nm and 665 nm wavelengths, respectively. FRET ratios were obtained by multiplying the acceptor/donor ratio value by 10,000. Specific binding was determined by subtracting the non-specific binding FRET ratio from the total binding FRET ratio. Compound IC50 curves were analysed using GraphPad Prism 7.0 (GraphPad, USA) and Ki affinity values were determined from the obtained IC50 values using the method of Cheng and Prusoff.

The test system of assay [4] is human PBMCs. The experiment in a line: CD3/CD28 stimulated IL-2 release NECA reversal assay in human PBMCs.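 Note: dose-response as % inhibition where 100% equals no-NECA control wells with CD3/CD28.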 In kind it is cell-based. Conditions: PBMC, CD3/CD28 antibody stimulated, 1 uM NECA, 24 hours, IL-2 in culture supernatant. Here is the method:
Blood is drawn from healthy volunteers using sodium citrate as the anticoagulant (0.3% final concentration). After centrifugation of the blood over Histopaque-1077, PBMCs are collected from the Histopaque/plasma interface and washed twice in PBS (300 g for 10 mins at room temp). Cells are plated at 50,000 cells/well in 150 μl RPMI/10% FCS in 96-well cell culture plates that have been precoated with 1 ug/ml CD3 antibody. 50 μl diluted compound mix is added to the cells, to obtain final concentrations of 1 ug/ml CD28 antibody, 1 uM NECA and 0.003-10 μM adenosine receptor antagonist. Assay plates are incubated for 24 hours at 37° C. in a humidified incubator. Culture supernatant is tested for IL-2 levels using the human IL-2 Tissue Culture Kit (Meso Scale Discovery).

Assay [5] addresses T4, human Adenosine A3 receptor (Homo sapiens, UniProt P0DMS8).
T4 sequence (P0DMS8 1-318): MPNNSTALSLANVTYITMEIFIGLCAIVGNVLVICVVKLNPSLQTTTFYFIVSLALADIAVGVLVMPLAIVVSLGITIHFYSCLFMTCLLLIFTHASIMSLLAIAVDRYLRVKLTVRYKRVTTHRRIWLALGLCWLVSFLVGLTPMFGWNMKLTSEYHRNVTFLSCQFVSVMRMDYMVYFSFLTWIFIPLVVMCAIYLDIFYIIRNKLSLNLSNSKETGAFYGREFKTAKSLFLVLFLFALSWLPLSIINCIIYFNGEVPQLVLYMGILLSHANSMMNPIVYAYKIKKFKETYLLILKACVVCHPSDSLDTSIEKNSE
The experiment in a line: Adenosine receptor TR-FRET binding assay (CA200645 displacement), A3.

T1 sequence (P29274 whole entry): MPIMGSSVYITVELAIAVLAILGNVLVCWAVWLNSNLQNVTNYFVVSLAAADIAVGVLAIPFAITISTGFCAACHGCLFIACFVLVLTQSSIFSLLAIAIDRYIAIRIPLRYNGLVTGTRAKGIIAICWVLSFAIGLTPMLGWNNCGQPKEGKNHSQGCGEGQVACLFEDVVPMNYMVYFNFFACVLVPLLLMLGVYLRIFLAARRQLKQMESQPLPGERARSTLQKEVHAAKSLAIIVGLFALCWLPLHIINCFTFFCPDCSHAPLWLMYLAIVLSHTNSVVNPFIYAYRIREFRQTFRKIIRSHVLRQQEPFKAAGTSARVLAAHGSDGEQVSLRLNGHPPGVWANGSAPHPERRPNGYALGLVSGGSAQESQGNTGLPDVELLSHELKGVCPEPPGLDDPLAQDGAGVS

For `N#Cc1c(-c2ccccc2F)nn2ccc(NCc3ccccc3)nc12` [Example 35, 5-(Benzylamino)-2-(2-fluorophenyl)pyrazolo[1,5-a]pyrimidine-3-carbonitrile], the figures for the inhibition constant Ki in assay [1], in assay [2] and in assay [3] were 4.5 nM, 4 nM and 122 nM, respectively. Also, the IC50 in assay [4] was determined as 408 nM.
For `N#Cc1c(-c2ccco2)nn2ccc(NCc3ccccc3)nc12` [Example 45, 5-(Benzylamino)-2-(2-furyl)pyrazolo[1,5-a]pyrimidine-3-carbonitrile], in that order: 0.5 nM, 6 nM, 74 nM and 107 nM.
In the case of `Cn1cc(-c2c(-c3ccco3)nn3ccc(NCc4ccccc4)nc23)cn1` [Example 53, N-benzyl-2-(2-furyl)-3-(1-methylpyrazol-4-yl)pyrazolo[1,5-a]pyrimidin-5-amine], the results for the Ki in assay [5], in assay [1] and in assay [2] were 618 nM, 27.7 nM and 214 nM, respectively. Further, the IC50 in assay [4] is 128 nM.
In the case of `N#Cc1cccc(-c2nn3ccc(NCc4ccccc4)nc3c2C#N)c1` [Example 58, 5-(Benzylamino)-2-(3-cyanophenyl)pyrazolo[1,5-a]pyrimidine-3-carbonitrile], the Ki was greater than 1000 nM in assay [5], 2 nM in assay [1] and 83 nM in assay [2]. Moreover, the IC50 in assay [4] came to 118 nM.
As for `N#Cc1cccc(-c2nn3ccc(N4CCN(CCF)CC4)nc3c2C#N)c1` [Example 87, 2-(3-Cyanophenyl)-5-[4-(2-fluoroethyl)piperazin-1-yl]pyrazolo[1,5-a]pyrimidine-3-carbonitrile], the values for the Ki in assay [5], in assay [1] and in assay [2] were greater than 1000 nM, 23.6 nM and 2280 nM, respectively. In addition, the IC50 in assay [4] was 57 nM.
For `Cc1cc(-c2c(-c3cccc(C#N)c3)nn3ccc(C(=O)N[C@@H](C)C(C)(C)O)nc23)cc(CO)n1` [Example 100, 2-(3-Cyanophenyl)-N-[(1S)-2-hydroxy-1,2-dimethyl-propyl]-3-[2-(hydroxymethyl)-6-methyl-4-pyridyl]pyrazolo[1,5-a]pyrimidine-5-carboxamide], the inhibition constant Ki was greater than 1000 nM in assay [5], 0.4 nM in assay [1], 64 nM in assay [2] and 28 nM in assay [3].
For `Cc1cc(-c2c(-c3cccc(C#N)c3)nn3ccc(C(=O)NCC4(C)NC(=O)NC4=O)nc23)c(F)c(C)n1` (stereo not shown) [Example 101, 2-(3-Cyanophenyl)-3-(3-fluoro-2,6-dimethyl-4-pyridyl)-N-[(4-methyl-2,5-dioxo-imidazolidin-4-yl)methyl]pyrazolo[1,5-a]pyrimidine-5-carboxamide], in that order: greater than 1000 nM, 5 nM, 1510 nM and 13 nM.
Consider `Cc1cc(-c2c(-c3cccc(C#N)c3)nn3ccc(C(=O)NCC(C)(C)O)nc23)c(F)c(C)n1` [Example 101.1, 2-(3-Cyanophenyl)-3-(3-fluoro-2,6-dimethyl-4-pyridyl)-N-(2-hydroxy-2-methyl-propyl)pyrazolo[1,5-a]pyrimidine-5-carboxamide], for which the inhibitory constant (Ki) in assay [5] is greater than 1000 nM; in assay [1] it was 4.3 nM; in assay [2], 1240 nM; in assay [3], 38 nM.
For `Cc1cc(-c2c(-c3cccc(C#N)c3)nn3ccc(N4CCC5(CC4)CNC(=O)C5)nc23)cc(C)n1` [Example 105, 3-[3-(2,6-Dimethyl-4-pyridyl)-5-(3-oxo-2,8-diazaspiro[4.5]decan-8-yl)pyrazolo[1,5-a]pyrimidin-2-yl]benzonitrile], the Ki in assay [5] was greater than 1000 nM; in assay [1], 127 nM; in assay [2], 776 nM; in assay [3], 378 nM.
For the molecule `Cc1cc(-c2c(-c3cccc(C#N)c3)nn3ccc(NC4CCN(C)C(=O)C4)nc23)cc(C)n1` (stereo not shown) [Example 105.2, 3-[3-(2,6-Dimethyl-4-pyridyl)-5-[(1-methyl-2-oxo-4-piperidyl)amino]pyrazolo[1,5-a]pyrimidin-2-yl]benzonitrile], the inhibition constant Ki is greater than 1000 nM in assay [5], 1.7 nM in assay [1], 35 nM in assay [2] and 18 nM in assay [3].
